{
  "source": "patent US11725011B2",
  "about": "“Bicyclic urea kinase inhibitors and uses thereof” (The Broad Institute, Inc., priority 2016, dated 2023)",
  "key": {"SNRK": {"molecular_target": "SNRK (Homo sapiens (Human), UniProt Q9NRH2)", "test": "KINOMEscan", "type": "binding", "settings": "1 uM"}, "PIP5K2C": {"molecular_target": "PIP5K2C (Homo sapiens (Human), UniProt Q8TBX8)", "sequence (Q8TBX8 whole entry)": "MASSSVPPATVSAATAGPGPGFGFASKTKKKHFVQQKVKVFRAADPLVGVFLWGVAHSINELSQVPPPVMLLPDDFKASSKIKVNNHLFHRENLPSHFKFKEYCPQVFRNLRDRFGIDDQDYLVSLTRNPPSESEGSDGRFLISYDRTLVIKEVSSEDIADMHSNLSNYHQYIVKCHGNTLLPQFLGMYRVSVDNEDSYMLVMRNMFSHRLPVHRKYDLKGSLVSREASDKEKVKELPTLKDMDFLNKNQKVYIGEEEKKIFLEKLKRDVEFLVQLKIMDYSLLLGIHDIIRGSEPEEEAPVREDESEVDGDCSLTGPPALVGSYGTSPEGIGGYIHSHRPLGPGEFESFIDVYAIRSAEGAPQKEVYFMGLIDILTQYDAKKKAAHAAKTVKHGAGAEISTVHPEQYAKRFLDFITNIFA", "test": "KINOMEscan", "type": "binding", "settings": "1 uM"}, "YSK1": {"molecular_target": "YSK1 (Homo sapiens (Human), UniProt O00506)", "test": "KINOMEscan", "type": "binding", "settings": "1 uM"}, "TAOK1": {"molecular_target": "TAOK1 (Homo sapiens (Human), UniProt Q7L7X3)", "test": "KINOMEscan", "type": "binding", "settings": "1 uM"}, "MEK6": {"molecular_target": "MEK6 (Homo sapiens (Human), UniProt P52564)", "sequence (P52564 whole entry)": "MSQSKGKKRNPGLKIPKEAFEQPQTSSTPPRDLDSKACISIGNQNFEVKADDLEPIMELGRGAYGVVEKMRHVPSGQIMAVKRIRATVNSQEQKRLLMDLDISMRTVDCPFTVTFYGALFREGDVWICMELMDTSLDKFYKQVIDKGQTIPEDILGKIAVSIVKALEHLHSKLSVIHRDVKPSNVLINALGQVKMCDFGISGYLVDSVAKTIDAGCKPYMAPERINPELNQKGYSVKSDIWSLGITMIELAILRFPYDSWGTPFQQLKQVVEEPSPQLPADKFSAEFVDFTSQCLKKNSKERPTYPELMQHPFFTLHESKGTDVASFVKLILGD", "test": "KINOMEscan", "type": "binding", "settings": "1 uM"}, "ERK3": {"molecular_target": "ERK3 (Homo sapiens (Human), UniProt Q16659)", "test": "KINOMEscan", "type": "binding", "settings": "1 uM"}, "MYLK2": {"molecular_target": "MYLK2 (Homo sapiens (Human), UniProt Q9H1R3)", "test": "KINOMEscan", "type": "binding", "settings": "1 uM"}, "[1]": {"molecular_target": "ABL1 (Q252H)-nonphosphorylated (Homo sapiens (Human), UniProt P00519, Q252H)", "test": "KINOMEscan", "type": "binding", "settings": "1 uM"}, "PIK3CG": {"molecular_target": "PIK3CG (Homo sapiens (Human), UniProt P48736)", "test": "KINOMEscan", "type": "binding", "settings": "1 uM"}, "PHKG1": {"molecular_target": "PHKG1 (Homo sapiens (Human), UniProt Q16816)", "sequence (Q16816 whole entry)": "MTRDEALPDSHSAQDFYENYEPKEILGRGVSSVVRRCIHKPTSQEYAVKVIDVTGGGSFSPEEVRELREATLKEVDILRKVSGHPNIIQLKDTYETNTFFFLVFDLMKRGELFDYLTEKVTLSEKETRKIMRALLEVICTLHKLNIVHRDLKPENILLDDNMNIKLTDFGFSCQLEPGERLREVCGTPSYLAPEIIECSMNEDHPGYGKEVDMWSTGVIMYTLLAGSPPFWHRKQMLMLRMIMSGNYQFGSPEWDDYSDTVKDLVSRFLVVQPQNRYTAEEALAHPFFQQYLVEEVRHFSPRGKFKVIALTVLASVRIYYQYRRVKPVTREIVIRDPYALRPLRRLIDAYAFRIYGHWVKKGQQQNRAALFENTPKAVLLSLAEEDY", "test": "KINOMEscan", "type": "binding", "settings": "1 uM"}, "EPHA4": {"molecular_target": "EPHA4 (Homo sapiens (Human), UniProt P54764)", "sequence (P54764 20-986)": "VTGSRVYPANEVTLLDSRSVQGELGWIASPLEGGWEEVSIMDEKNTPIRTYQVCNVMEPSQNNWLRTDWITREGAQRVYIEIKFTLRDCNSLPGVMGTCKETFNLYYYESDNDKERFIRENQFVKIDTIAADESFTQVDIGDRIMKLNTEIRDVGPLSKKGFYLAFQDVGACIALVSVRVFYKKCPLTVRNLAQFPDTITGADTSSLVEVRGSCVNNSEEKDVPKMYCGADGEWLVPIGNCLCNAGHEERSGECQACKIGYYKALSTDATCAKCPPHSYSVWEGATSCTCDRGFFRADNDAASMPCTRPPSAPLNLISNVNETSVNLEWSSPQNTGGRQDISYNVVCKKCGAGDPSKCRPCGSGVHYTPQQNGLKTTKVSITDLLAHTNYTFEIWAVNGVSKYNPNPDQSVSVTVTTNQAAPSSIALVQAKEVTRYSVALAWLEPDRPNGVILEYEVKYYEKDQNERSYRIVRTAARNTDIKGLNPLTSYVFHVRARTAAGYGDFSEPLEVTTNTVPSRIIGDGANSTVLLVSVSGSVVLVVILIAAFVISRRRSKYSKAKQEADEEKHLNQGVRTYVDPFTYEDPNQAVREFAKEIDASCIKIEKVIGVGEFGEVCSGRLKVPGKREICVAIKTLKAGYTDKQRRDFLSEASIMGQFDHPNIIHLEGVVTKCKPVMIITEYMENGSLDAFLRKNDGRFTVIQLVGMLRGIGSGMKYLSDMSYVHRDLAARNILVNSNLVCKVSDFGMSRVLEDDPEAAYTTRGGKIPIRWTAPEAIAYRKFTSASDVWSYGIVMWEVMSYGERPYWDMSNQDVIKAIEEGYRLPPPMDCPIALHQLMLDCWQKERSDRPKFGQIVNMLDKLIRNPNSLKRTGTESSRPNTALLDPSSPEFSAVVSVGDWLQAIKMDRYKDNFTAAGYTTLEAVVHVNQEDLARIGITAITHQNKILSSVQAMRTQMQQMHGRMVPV", "test": "KINOMEscan", "type": "binding", "settings": "1 uM"}, "AXL": {"molecular_target": "AXL (Homo sapiens (Human), UniProt P30530)", "test": "KINOMEscan", "type": "binding", "settings": "1 uM"}, "EPHA5": {"molecular_target": "EPHA5 (Homo sapiens (Human), UniProt P54756)", "test": "KINOMEscan", "type": "binding", "settings": "1 uM"}, "PIK3CA (E545K)": {"molecular_target": "PIK3CA (E545K) (Homo sapiens (Human), UniProt P42336, E545K)", "test": "KINOMEscan", "type": "binding", "settings": "1 uM"}, "CSNK1A1": {"molecular_target": "CSNK1A1 (Homo sapiens (Human), UniProt P48729)", "test": "KINOMEscan", "type": "binding", "settings": "1 uM"}, "MERTK": {"molecular_target": "MERTK (Homo sapiens (Human), UniProt Q12866)", "test": "KINOMEscan", "type": "binding", "settings": "1 uM"}, "PDGFRA": {"molecular_target": "PDGFRA (Homo sapiens (Human), UniProt P16234)", "test": "KINOMEscan", "type": "binding", "settings": "1 uM"}, "MELK": {"molecular_target": "MELK (Homo sapiens (Human), UniProt Q14680)", "test": "KINOMEscan", "type": "binding", "settings": "1 uM"}, "EPHA7": {"molecular_target": "EPHA7 (Homo sapiens (Human), UniProt Q15375)", "test": "KINOMEscan", "type": "binding", "settings": "1 uM"}, "WNK1": {"molecular_target": "WNK1 (Homo sapiens (Human), UniProt Q9H4A3)", "sequence (Q9H4A3 whole entry)": "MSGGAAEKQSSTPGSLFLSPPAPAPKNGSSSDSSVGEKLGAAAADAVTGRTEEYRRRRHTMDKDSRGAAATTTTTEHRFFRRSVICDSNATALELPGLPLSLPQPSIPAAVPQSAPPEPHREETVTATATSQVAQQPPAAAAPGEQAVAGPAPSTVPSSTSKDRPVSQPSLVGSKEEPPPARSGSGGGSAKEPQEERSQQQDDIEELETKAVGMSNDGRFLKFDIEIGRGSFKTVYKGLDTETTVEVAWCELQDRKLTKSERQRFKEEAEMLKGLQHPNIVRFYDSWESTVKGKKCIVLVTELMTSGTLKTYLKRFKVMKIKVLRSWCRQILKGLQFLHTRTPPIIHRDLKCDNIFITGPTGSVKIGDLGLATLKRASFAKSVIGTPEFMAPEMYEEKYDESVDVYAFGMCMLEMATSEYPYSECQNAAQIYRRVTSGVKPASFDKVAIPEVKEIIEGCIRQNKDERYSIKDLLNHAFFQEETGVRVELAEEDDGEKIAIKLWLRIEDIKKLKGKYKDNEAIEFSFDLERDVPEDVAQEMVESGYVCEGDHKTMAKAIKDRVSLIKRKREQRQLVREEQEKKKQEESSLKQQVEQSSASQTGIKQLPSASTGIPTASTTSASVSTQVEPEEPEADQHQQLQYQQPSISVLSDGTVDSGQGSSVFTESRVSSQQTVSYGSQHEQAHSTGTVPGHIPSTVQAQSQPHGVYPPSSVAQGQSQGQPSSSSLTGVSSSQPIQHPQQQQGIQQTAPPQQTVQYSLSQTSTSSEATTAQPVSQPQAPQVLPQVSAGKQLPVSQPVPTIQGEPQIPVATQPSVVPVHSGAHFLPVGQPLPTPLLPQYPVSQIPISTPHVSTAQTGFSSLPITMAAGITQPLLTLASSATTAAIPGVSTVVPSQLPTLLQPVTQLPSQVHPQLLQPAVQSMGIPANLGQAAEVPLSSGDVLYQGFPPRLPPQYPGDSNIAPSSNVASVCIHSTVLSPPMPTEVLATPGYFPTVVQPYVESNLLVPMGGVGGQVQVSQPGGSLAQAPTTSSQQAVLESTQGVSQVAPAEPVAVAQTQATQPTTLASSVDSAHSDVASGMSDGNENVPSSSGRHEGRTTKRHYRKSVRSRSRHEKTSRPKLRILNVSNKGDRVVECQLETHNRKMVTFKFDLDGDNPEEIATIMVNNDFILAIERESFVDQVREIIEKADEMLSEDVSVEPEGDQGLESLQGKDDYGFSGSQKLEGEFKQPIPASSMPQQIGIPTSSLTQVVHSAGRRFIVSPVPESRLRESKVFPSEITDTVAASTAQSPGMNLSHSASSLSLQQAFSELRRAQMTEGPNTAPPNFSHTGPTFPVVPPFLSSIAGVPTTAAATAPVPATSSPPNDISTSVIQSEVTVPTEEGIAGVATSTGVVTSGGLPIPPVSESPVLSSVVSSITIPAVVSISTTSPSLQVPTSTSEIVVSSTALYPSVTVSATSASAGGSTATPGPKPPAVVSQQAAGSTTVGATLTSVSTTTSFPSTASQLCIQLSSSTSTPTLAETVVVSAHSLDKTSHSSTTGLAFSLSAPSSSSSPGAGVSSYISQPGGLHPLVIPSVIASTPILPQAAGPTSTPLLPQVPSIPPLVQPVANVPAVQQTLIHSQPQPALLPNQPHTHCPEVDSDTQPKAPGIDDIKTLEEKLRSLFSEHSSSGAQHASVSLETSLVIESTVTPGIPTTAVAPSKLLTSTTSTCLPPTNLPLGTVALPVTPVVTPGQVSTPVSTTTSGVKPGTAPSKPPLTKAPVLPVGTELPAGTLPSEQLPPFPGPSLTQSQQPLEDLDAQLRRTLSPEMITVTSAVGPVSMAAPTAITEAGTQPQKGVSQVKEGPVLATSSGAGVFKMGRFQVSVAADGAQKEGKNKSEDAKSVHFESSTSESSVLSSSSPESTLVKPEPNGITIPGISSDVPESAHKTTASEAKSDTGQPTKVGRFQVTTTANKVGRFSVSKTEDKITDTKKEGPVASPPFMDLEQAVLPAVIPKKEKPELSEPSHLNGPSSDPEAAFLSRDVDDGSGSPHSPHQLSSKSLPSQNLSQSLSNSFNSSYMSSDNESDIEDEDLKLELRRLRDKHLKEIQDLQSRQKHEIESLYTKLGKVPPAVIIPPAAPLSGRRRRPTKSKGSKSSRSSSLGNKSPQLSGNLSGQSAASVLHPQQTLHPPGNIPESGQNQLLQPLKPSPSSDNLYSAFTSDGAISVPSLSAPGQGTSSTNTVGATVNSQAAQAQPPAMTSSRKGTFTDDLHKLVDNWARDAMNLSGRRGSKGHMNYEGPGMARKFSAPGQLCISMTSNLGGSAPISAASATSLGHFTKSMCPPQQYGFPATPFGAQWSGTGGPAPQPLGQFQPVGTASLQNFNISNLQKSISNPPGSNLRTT", "test": "KINOMEscan", "type": "binding", "settings": "1 uM"}, "PCTK3": {"molecular_target": "PCTK3 (Homo sapiens (Human), UniProt Q07002)", "test": "KINOMEscan", "type": "binding", "settings": "1 uM"}, "CDKL3": {"molecular_target": "CDKL3 (Homo sapiens (Human), UniProt Q8IVW4)", "test": "KINOMEscan", "type": "binding", "settings": "1 uM"}, "ROCK1": {"molecular_target": "ROCK1 (Homo sapiens (Human), UniProt Q13464)", "test": "KINOMEscan", "type": "binding", "settings": "1 uM"}, "MAP4K3": {"molecular_target": "MAP4K3 (Homo sapiens (Human), UniProt Q8IVH8)", "test": "KINOMEscan", "type": "binding", "settings": "1 uM"}, "TGFBR2": {"molecular_target": "TGFBR2 (Homo sapiens (Human), UniProt P37173)", "test": "KINOMEscan", "type": "binding", "settings": "1 uM"}, "DDR1": {"molecular_target": "DDR1 (Homo sapiens (Human), UniProt Q08345)", "test": "KINOMEscan", "type": "binding", "settings": "1 uM"}, "CDK8": {"molecular_target": "CDK8 (Homo sapiens (Human), UniProt P49336)", "test": "KINOMEscan", "type": "binding", "settings": "1 uM"}, "MEK2": {"molecular_target": "MEK2 (Homo sapiens (Human), UniProt P36507)", "test": "KINOMEscan", "type": "binding", "settings": "1 uM"}, "IRAK3": {"molecular_target": "IRAK3 (Homo sapiens (Human), UniProt Q9Y616)", "test": "KINOMEscan", "type": "binding", "settings": "1 uM"}, "HIPK1": {"molecular_target": "HIPK1 (Homo sapiens (Human), UniProt Q86Z02)", "test": "KINOMEscan", "type": "binding", "settings": "1 uM"}, "MINK": {"molecular_target": "MINK (Homo sapiens (Human), UniProt Q8N4C8)", "test": "KINOMEscan", "type": "binding", "settings": "1 uM"}, "ALK": {"molecular_target": "ALK (Homo sapiens (Human), UniProt Q9UM73)", "test": "KINOMEscan", "type": "binding", "settings": "1 uM"}, "CASK": {"molecular_target": "CASK (Homo sapiens (Human), UniProt O14936)", "test": "KINOMEscan", "type": "binding", "settings": "1 uM"}, "BMPR1A": {"molecular_target": "BMPR1A (Homo sapiens (Human), UniProt P36894)", "test": "KINOMEscan", "type": "binding", "settings": "1 uM"}, "SRPK2": {"molecular_target": "SRPK2 (Homo sapiens (Human), UniProt P78362)", "test": "KINOMEscan", "type": "binding", "settings": "1 uM"}, "[2]": {"molecular_target": "ABL1 (Q252H)-phosphorylated (Homo sapiens (Human), UniProt P00519, Q252H)", "test": "KINOMEscan", "type": "binding", "settings": "1 uM"}, "Viability loss (Table 4)": {"test": "Viability loss (Table 4)", "type": "cell-based"}, "ITK": {"molecular_target": "ITK (Homo sapiens (Human), UniProt Q08881)", "test": "KINOMEscan", "type": "binding", "settings": "1 uM"}, "PAK2": {"molecular_target": "PAK2 (Homo sapiens (Human), UniProt Q13177)", "sequence (Q13177 whole entry)": "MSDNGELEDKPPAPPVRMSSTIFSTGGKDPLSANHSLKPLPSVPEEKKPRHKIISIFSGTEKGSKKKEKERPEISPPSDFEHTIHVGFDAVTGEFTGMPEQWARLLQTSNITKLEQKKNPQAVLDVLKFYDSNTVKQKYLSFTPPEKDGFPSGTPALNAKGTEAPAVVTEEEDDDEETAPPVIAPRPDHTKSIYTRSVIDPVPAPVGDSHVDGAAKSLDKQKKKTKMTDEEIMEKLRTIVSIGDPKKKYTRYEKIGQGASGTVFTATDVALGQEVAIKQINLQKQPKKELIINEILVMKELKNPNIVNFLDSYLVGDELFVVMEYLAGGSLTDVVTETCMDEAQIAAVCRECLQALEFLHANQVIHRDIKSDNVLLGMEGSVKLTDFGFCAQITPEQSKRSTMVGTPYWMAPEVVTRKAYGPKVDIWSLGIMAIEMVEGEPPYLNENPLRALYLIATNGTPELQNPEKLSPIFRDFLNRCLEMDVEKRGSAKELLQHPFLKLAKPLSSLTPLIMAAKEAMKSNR", "test": "KINOMEscan", "type": "binding", "settings": "1 uM"}, "CHEK2": {"molecular_target": "CHEK2 (Homo sapiens (Human), UniProt O96017)", "test": "KINOMEscan", "type": "binding", "settings": "1 uM"}, "FLT3": {"molecular_target": "FLT3 (Homo sapiens (Human), UniProt P36888)", "test": "KINOMEscan", "type": "binding", "settings": "1 uM"}, "MRCKB": {"molecular_target": "MRCKB (Homo sapiens (Human), UniProt Q9Y5S2)", "test": "KINOMEscan", "type": "binding", "settings": "1 uM"}},
  "data": [
    {"smiles": "COc1ccc(N2C(=O)N(c3c(C)cccc3C)Cc3cnc(Nc4ccc(N5CCN(C)CC5)cc4)nc32)c(OC)c1", "note": "[HG-11-136-01]", "values": [
      {"measurement": "KINOMEscan SNRK", "setting": "SNRK", "value": 91},
      {"measurement": "KINOMEscan PIP5K2C", "setting": "PIP5K2C", "value": 100},
      {"measurement": "KINOMEscan YSK1", "setting": "YSK1", "value": 19},
      {"measurement": "KINOMEscan TAOK1", "setting": "TAOK1", "value": 1},
      {"measurement": "KINOMEscan MEK6", "setting": "MEK6", "value": 30},
      {"measurement": "KINOMEscan ERK3", "setting": "ERK3", "value": 81},
      {"measurement": "KINOMEscan MYLK2", "setting": "MYLK2", "value": 81},
      {"measurement": "KINOMEscan ABL1 (Q252H)-nonphosphorylated", "setting": "[1]", "value": 0},
      {"measurement": "KINOMEscan PIK3CG", "setting": "PIK3CG", "value": 77},
      {"measurement": "KINOMEscan PHKG1", "setting": "PHKG1", "value": 100},
      {"measurement": "KINOMEscan EPHA4", "setting": "EPHA4", "value": 0},
      {"measurement": "KINOMEscan AXL", "setting": "AXL", "value": 25},
      {"measurement": "KINOMEscan EPHA5", "setting": "EPHA5", "value": 0.6},
      {"measurement": "KINOMEscan PIK3CA (E545K)", "setting": "PIK3CA (E545K)", "value": 98},
      {"measurement": "KINOMEscan CSNK1A1", "setting": "CSNK1A1", "value": 100},
      {"measurement": "KINOMEscan MERTK", "setting": "MERTK", "value": 5.6},
      {"measurement": "KINOMEscan PDGFRA", "setting": "PDGFRA", "value": 0.5},
      {"measurement": "KINOMEscan MELK", "setting": "MELK", "value": 36},
      {"measurement": "KINOMEscan EPHA7", "setting": "EPHA7", "value": 72},
      {"measurement": "KINOMEscan WNK1", "setting": "WNK1", "value": 89},
      {"measurement": "KINOMEscan PCTK3", "setting": "PCTK3", "value": 100},
      {"measurement": "KINOMEscan CDKL3", "setting": "CDKL3", "value": 58},
      {"measurement": "KINOMEscan ROCK1", "setting": "ROCK1", "value": 81},
      {"measurement": "KINOMEscan MAP4K3", "setting": "MAP4K3", "value": 1.8},
      {"measurement": "KINOMEscan TGFBR2", "setting": "TGFBR2", "value": 38},
      {"measurement": "KINOMEscan DDR1", "setting": "DDR1", "value": 0.3},
      {"measurement": "KINOMEscan CDK8", "setting": "CDK8", "value": 100},
      {"measurement": "KINOMEscan MEK2", "setting": "MEK2", "value": 0.2},
      {"measurement": "KINOMEscan IRAK3", "setting": "IRAK3", "value": 38},
      {"measurement": "KINOMEscan HIPK1", "setting": "HIPK1", "value": 3.8},
      {"measurement": "KINOMEscan MINK", "setting": "MINK", "value": 2.8},
      {"measurement": "KINOMEscan ALK", "setting": "ALK", "value": 1.6},
      {"measurement": "KINOMEscan CASK", "setting": "CASK", "value": 54},
      {"measurement": "KINOMEscan BMPR1A", "setting": "BMPR1A", "value": 4.6},
      {"measurement": "KINOMEscan SRPK2", "setting": "SRPK2", "value": 93},
      {"measurement": "KINOMEscan ABL1 (Q252H)-phosphorylated", "setting": "[2]", "value": 0.25},
      {"measurement": "Viability loss AC40", "setting": "Viability loss (Table 4)", "value": 97, "unit": "nM"},
      {"measurement": "Viability loss data mode", "setting": "Viability loss (Table 4)", "value": "decreasing"},
      {"measurement": "KINOMEscan ITK", "setting": "ITK", "value": 66},
      {"measurement": "KINOMEscan PAK2", "setting": "PAK2", "value": 61},
      {"measurement": "KINOMEscan CHEK2", "setting": "CHEK2", "value": 46},
      {"measurement": "KINOMEscan FLT3", "setting": "FLT3", "value": 34},
      {"measurement": "KINOMEscan MRCKB", "setting": "MRCKB", "value": 38}
    ]}
  ]
}
